The values below come from patent US9150566B2, “2-(1,2,3-triazol-2-yl)benzamide and 3-(1,2,3-triazol-2-YL)picolinamide derivatives as orexin receptor antagonists” (ACTELION PHARMACEUTICALS LTD., priority 2011, dated 2015).

Molecules are shown by their SMILES. Where two headings read alike, the source gives them in different places. A value given as a limit tells only on which side of the number the result lay.

For one series, the target named is human orexin-1 receptor (Homo sapiens (Human), UniProt O43613). Briefly: In vitro intracellular calcium measurements (FLIPR), antagonistic activity on orexin-1 receptor. The class given is cell-based. As to conditions: read-out: IC50 OX1. The gist of the method:
(§1)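 Recombinant CHO lines bearing human OX1 or OX2 receptors received test antagonist 120 min before agonist addition.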
For orientation: Calcium assays in cells follow changes in intracellular calcium, usually with a dye or a luminescent sensor.

A further series has as its target human orexin-2 receptor (Homo sapiens (Human), UniProt O43614). The experiment in a line: In vitro intracellular calcium measurements (FLIPR), antagonistic activity on orexin-2 receptor. The format is cell-based. The conditions noted are these: read-out: IC50 OX2. Put shortly:
as §1

Another series has as its target CYP3A4 (Homo sapiens (Human), UniProt P08684). The experiment in a line: CYP3A4 inhibition assay (human liver microsomes, testosterone 6β-hydroxylation). As to conditions: read-out: CYP3A4 IC50, 40 μM testosterone. (In general: Liver microsomes are vesicles of endoplasmic reticulum, rich in cytochrome P450 enzymes.)
Setting [1] is: CHO cells expressing human orexin-1 receptor, FLIPR, 3 nM orexin-A agonist, 120 min antagonist incubation, geometric mean if determined several times.
[2] abbreviates: CHO cells expressing human orexin-2 receptor, FLIPR, 3 nM orexin-A agonist, 120 min antagonist incubation, geometric mean if determined several times.

Sequence of human orexin-1 receptor (O43613 whole entry): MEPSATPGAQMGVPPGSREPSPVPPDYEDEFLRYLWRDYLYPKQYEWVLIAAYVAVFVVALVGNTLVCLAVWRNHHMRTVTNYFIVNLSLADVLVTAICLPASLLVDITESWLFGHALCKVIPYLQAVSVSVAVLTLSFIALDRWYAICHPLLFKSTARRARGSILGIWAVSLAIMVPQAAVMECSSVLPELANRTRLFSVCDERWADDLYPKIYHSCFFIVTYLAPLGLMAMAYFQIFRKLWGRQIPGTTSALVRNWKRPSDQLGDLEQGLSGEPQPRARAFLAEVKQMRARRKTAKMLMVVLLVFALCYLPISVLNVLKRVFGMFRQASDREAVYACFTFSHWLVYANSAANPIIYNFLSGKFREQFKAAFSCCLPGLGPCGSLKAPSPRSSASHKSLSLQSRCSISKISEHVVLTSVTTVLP
Sequence of human orexin-2 receptor (O43614 whole entry): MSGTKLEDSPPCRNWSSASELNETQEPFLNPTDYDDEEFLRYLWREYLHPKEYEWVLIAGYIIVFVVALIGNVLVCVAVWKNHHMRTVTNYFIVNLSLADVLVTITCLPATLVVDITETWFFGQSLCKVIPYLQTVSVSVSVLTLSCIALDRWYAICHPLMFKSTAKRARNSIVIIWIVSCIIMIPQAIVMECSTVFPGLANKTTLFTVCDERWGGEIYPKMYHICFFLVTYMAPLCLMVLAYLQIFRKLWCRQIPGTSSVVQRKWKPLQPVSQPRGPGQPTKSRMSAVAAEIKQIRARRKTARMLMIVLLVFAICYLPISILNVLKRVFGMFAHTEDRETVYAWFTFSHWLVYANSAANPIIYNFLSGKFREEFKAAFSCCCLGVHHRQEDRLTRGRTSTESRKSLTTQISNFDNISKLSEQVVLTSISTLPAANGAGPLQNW
Sequence of CYP3A4 (P08684 whole entry): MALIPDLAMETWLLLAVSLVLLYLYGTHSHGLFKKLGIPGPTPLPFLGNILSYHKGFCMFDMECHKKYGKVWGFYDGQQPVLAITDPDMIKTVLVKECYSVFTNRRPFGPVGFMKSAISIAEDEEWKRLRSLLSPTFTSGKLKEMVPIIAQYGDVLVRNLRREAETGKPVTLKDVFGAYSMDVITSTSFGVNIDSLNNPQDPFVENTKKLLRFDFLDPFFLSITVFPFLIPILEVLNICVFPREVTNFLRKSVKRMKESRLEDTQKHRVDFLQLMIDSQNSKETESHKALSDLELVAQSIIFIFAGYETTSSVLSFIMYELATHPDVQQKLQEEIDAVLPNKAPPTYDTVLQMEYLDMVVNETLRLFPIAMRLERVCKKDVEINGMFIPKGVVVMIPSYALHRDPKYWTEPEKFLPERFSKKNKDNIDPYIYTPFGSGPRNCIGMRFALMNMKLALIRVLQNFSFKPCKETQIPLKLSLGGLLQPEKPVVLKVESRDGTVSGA
Protocol for CYP3A4: The CYP3A4 inhibition assay was performed using human liver microsomes and testosterone 6β-hydroxylation as a P450 isoform-specific marker. In a total volume of 150 μL, ^14C-testosterone at a final concentration of 40 μM in a 100 mM phosphate buffer (pH 7.4) was incubated in a 96-well plate with 0.3 mg/mL of human liver microsomes in an Eppendorf thermomixer at 37° C. and 400 rpm. […] The reaction was initiated by addition of 15 μL of the NADPH-regenerating system containing the glucose-6-phosphate dehydrogenase and terminated after 7 min with a 75 μL-aliquot of methanol. After centrifugation at 465 g and 4° C. for 20 min, a 50 μL-aliquot of the supernatant was submitted to HPLC according to the method described below. The total concentration of DMSO in the assay including controls without inhibitor was 1%.
Nicardipine was run in parallel as a reference inhibitor of CYP3A4 activity at final concentrations of 0, 0.1, 0.5, 1.0, 5.0, 10, 25, and 50 μM. Stock solutions thereof were prepared in DMSO.
The chromatographic separation of testosterone and 6β-hydroxytestosterone was achieved on a Phenomenex Luna C18(2) column (5 μm, 2.0×10 mm) at RT with a flow rate of 0.6 mL/min. Mobile phases consisted of 1% aqueous formic acid (phase A) and methanol (phase B) using a gradient method with 0.9 min total run time.
The quantification of 6β-hydroxytestosterone was carried out using a quadrupole mass spectrometer equipped with an ionspray interface operating in positive ion mode. The parameters of the mass detector were set as follows: capillary voltage 5 kV, auxiliary gas 40 psi, collision gas 3 mTorr, and transfer capillary temperature 420° C.

As for `Cc1cccc(C(=O)N2C[C@@H](C)OC[C@H]2Cc2cc(-c3ncccn3)ccc2F)c1-n1nccn1` [Example 150, [(2R,5R)-5-(2-Fluoro-5-pyrimidin-2-yl-benzyl)-2-methyl-morpholin-4-yl]-(3-methyl-2-[1,2,3]triazol-2-yl-phenyl)-methanone], the IC50 came to 9 nM on human orexin-1 receptor (setting [1]), 506 nM on human orexin-2 receptor (setting [2]) and 32 µM at CYP3A4.
On to `Cc1ccc(C(=O)N2CCOC[C@H]2Cc2cc(-n3nccn3)ccc2Cl)c(-n2nccn2)c1C` [Example 169, [(R)-3-(2-Chloro-5-[1,2,3]triazol-2-yl-benzyl)-morpholin-4-yl]-(3,4-dimethyl-2-[1,2,3]triazol-2-yl-phenyl)-methanone], for which the IC50 on human orexin-1 receptor (setting [1]) was 5 nM; on human orexin-2 receptor (setting [2]), 2440 nM; on CYP3A4, 29 µM.
For the compound `Cc1ccc(-n2nccn2)c(C(=O)N2CCOC[C@H]2Cc2cccc(-n3ccnn3)c2)c1` [Example 15, (5-Methyl-2-[1,2,3]triazol-2-yl-phenyl)-[(R)-3-(3-[1,2,3]triazol-1-yl-benzyl)-morpholin-4-yl]-methanone], the IC50 worked out at 24 nM on human orexin-1 receptor (setting [1]), 3160 nM at human orexin-2 receptor (setting [2]) and 14 µM on CYP3A4.
`COc1ccc(-n2nccn2)c(C(=O)N2CCOC[C@H]2Cc2cccc(-c3ncccn3)c2)c1` [Example 50, (5-Methoxy-2-[1,2,3]triazol-2-yl-phenyl)-[(R)-3-(3-pyrimidin-2-yl-benzyl)-morpholin-4-yl]-methanone]: the figures for the IC50 on human orexin-1 receptor (setting [1]), on human orexin-2 receptor (setting [2]) and at CYP3A4 were 2 nM, 942 nM and above 50 µM, respectively.
For the compound `Cc1ccc(-n2nccn2)cc1C[C@@H]1COCCN1C(=O)c1ccc(Cl)cc1-n1nccn1` [Example 191, (4-Chloro-2-[1,2,3]triazol-2-yl-phenyl)-[(R)-3-(2-methyl-5-[1,2,3]triazol-2-yl-benzyl)-morpholin-4-yl]-methanone], the IC50 on human orexin-1 receptor (setting [1]) turned out to be 12 nM; on human orexin-2 receptor (setting [2]), 1040 nM; at CYP3A4, 14 µM.
For the compound `O=C(c1cc(F)ccc1-n1nccn1)N1CCOC[C@H]1Cc1cccc(-n2cccn2)c1` [Example 20, (5-Fluoro-2-[1,2,3]triazol-2-yl-phenyl)-[(R)-3-(3-pyrazol-1-yl-benzyl)-morpholin-4-yl]-methanone], the IC50 was determined as 25 nM at human orexin-1 receptor (setting [1]), 1530 nM on human orexin-2 receptor (setting [2]) and 25 µM at CYP3A4.
For `C[C@@H]1CN(C(=O)c2cc(Cl)ccc2-n2nccn2)[C@H](Cc2cc(-n3nccn3)ccc2F)CO1` [Example 186, (5-Chloro-2-[1,2,3]triazol-2-yl-phenyl)-[(2R,5R)-5-(2-fluoro-5-[1,2,3]triazol-2-yl-benzyl)-2-methyl-morpholin-4-yl]-methanone], the IC50 was 11 nM on human orexin-1 receptor (setting [1]), 181 nM at human orexin-2 receptor (setting [2]) and 19 µM at CYP3A4.
In the same order, the values of `Cc1ccc(C[C@@H]2COCCN2C(=O)c2ccccc2-n2nccn2)cc1-n1nccn1` [Example 66, [(R)-3-(4-Methyl-3-[1,2,3]triazol-2-yl-benzyl)-morpholin-4-yl]-(2-[1,2,3]triazol-2-yl-phenyl)-methanone] are 16 nM, 992 nM and 36 µM.
The like results for `Cc1ccc(-n2nccn2)c(C(=O)N2CCOC[C@H]2Cc2cc(-n3nccn3)ccc2F)c1` [Example 56, [(R)-3-(2-Fluoro-5-[1,2,3]triazol-2-yl-benzyl)-morpholin-4-yl]-(5-methyl-2-[1,2,3]triazol-2-yl-phenyl)-methanone] were, in that order, 4 nM, 837 nM and 33 µM.
As for `Cc1ccc(C(=O)N2C[C@@H](C)OC[C@H]2Cc2cccc(-n3nccn3)c2)c(-n2nccn2)c1` [Example 101, [(2R,5R)-2-Methyl-5-(3-[1,2,3]triazol-2-yl-benzyl)-morpholin-4-yl]-(4-methyl-2-[1,2,3]triazol-2-yl-phenyl)-methanone], the IC50 is 2 nM at human orexin-1 receptor, 155 nM on human orexin-2 receptor and 9.7 µM on CYP3A4.
In the case of `COc1ccc(C[C@@H]2COCCN2C(=O)c2ccccc2-n2nccn2)cc1-c1ccccn1` [Example 3, [(R)-3-(4-Methoxy-3-pyridin-2-yl-benzyl)-morpholin-4-yl]-(2-[1,2,3]triazol-2-yl-phenyl)-methanone], the half-maximal inhibitory concentration (IC50) at human orexin-1 receptor (setting [1]) was determined as 4 nM; on human orexin-2 receptor (setting [2]), 3340 nM; at CYP3A4, 21 µM.
With `Cc1cc(C(=O)N2C[C@@H](C)OC[C@H]2Cc2cccc(-n3nccn3)c2)c(-n2nccn2)cc1C` [Example 98, (4,5-Dimethyl-2-[1,2,3]triazol-2-yl-phenyl)-[(2R,5R)-2-methyl-5-(3-[1,2,3]triazol-2-yl-benzyl)-morpholin-4-yl]-methanone], the values for the IC50 at human orexin-1 receptor (setting [1]), on human orexin-2 receptor (setting [2]) and on CYP3A4 were 1 nM, 24 nM and 9.7 µM, respectively.
For the compound `Cc1ccc(C(=O)N2CCOC[C@H]2Cc2cccc(-n3nccn3)c2F)c(-n2nccn2)c1` [Example 183, [(R)-3-(2-Fluoro-3-[1,2,3]triazol-2-yl-benzyl)-morpholin-4-yl]-(4-methyl-2-[1,2,3]triazol-2-yl-phenyl)-methanone], the IC50 at human orexin-1 receptor is 15 nM; on human orexin-2 receptor, 2130 nM; on CYP3A4, above 50 µM.
Turning to `Cc1ccc(-n2nccn2)c(C(=O)N2CCOC[C@H]2Cc2cc(-n3nccn3)ccc2F)c1F` [Example 132, (2-Fluoro-3-methyl-6-[1,2,3]triazol-2-yl-phenyl)-[(R)-3-(2-fluoro-5-[1,2,3]triazol-2-yl-benzyl)-morpholin-4-yl]-methanone], the results for the IC50 on human orexin-1 receptor (setting [1]), on human orexin-2 receptor (setting [2]) and at CYP3A4 were 8 nM, 1170 nM and 19 µM, respectively.
The like results for `O=C(c1cc(Cl)ccc1-n1nccn1)N1CCOC[C@H]1Cc1cccc(-c2ncon2)c1` [Example 84, (5-Chloro-2-[1,2,3]triazol-2-yl-phenyl)-[(R)-3-(3-[1,2,4]oxadiazol-3-yl-benzyl)-morpholin-4-yl]-methanone] were, in that order, 5 nM, 246 nM and 21 µM.
Turning to `Cc1ccc(C(=O)N2C[C@@H](C)OC[C@H]2Cc2cc(-n3ccnn3)ccc2F)c(-n2nccn2)c1` [Example 141, [(2R,5R)-5-(2-Fluoro-5-[1,2,3]triazol-1-yl-benzyl)-2-methyl-morpholin-4-yl]-(4-methyl-2-[1,2,3]triazol-2-yl-phenyl)-methanone], the values for the IC50 on human orexin-1 receptor (setting [1]), at human orexin-2 receptor (setting [2]) and at CYP3A4 were 16 nM, 429 nM and 19 µM, respectively.
For the compound `COc1ccc(-n2nccn2)c(C(=O)N2CCOC[C@H]2Cc2cccc(-n3nccn3)c2)c1F` [Example 33, (2-Fluoro-3-methoxy-6-[1,2,3]triazol-2-yl-phenyl)-[(R)-3-(3-[1,2,3]triazol-2-yl-benzyl)-morpholin-4-yl]-methanone], the IC50 at human orexin-1 receptor (setting [1]) was 14 nM; at human orexin-2 receptor (setting [2]), 1200 nM; at CYP3A4, above 50 µM.
Regarding `C[C@@H]1CN(C(=O)c2ccccc2-n2nccn2)[C@H](Cc2cccc(-c3ncccn3)c2)CO1` [Example 108, [(2R,5R)-2-Methyl-5-(3-pyrimidin-2-yl-benzyl)-morpholin-4-yl]-(2-[1,2,3]triazol-2-yl-phenyl)-methanone], the IC50 worked out at 10 nM on human orexin-1 receptor (setting [1]), 855 nM at human orexin-2 receptor (setting [2]) and 46 µM at CYP3A4.
Consider `Cc1cccc(C(=O)N2CCOC[C@H]2Cc2cc(-n3nccn3)ccc2Cl)c1-n1nccn1` [Example 122, [(R)-3-(2-Chloro-5-[1,2,3]triazol-2-yl-benzyl)-morpholin-4-yl]-(3-methyl-2-[1,2,3]triazol-2-yl-phenyl)-methanone], for which the half-inhibitory concentration (IC50) on human orexin-1 receptor (setting [1]) was found to be 6 nM; on human orexin-2 receptor (setting [2]) it was 1610 nM; at CYP3A4, 18 µM.
As for `Cc1ccc(C[C@@H]2COCCN2C(=O)c2ccccc2-n2nccn2)cc1-c1ncccn1` [Example 192, [(R)-3-(4-Methyl-3-pyrimidin-2-yl-benzyl)-morpholin-4-yl]-(2-[1,2,3]triazol-2-yl-phenyl)-methanone], the 50% inhibitory concentration (IC50) on human orexin-1 receptor (setting [1]) was 16 nM; at human orexin-2 receptor (setting [2]), 2610 nM; on CYP3A4 it was above 50 µM.
`Cc1ccc(-n2nccn2)c(C(=O)N2C[C@@H](C)OC[C@H]2Cc2cccc(-c3ncccn3)c2)c1` [Example 109, [(2R,5R)-2-Methyl-5-(3-pyrimidin-2-yl-benzyl)-morpholin-4-yl]-(5-methyl-2-[1,2,3]triazol-2-yl-phenyl)-methanone]: the figures for the IC50 at human orexin-1 receptor (setting [1]), on human orexin-2 receptor (setting [2]) and on CYP3A4 were 1 nM, 105 nM and 43 µM, respectively.
Take `O=C(c1ccc(Cl)cc1-n1nccn1)N1CCOC[C@H]1Cc1cc(-c2ncon2)ccc1F` [Example 178, (4-Chloro-2-[1,2,3]triazol-2-yl-phenyl)-[(R)-3-(2-fluoro-5-[1,2,4]oxadiazol-3-yl-benzyl)-morpholin-4-yl]-methanone]: the IC50 amounted to 2 nM at human orexin-1 receptor (setting [1]), 165 nM on human orexin-2 receptor (setting [2]) and 24 µM at CYP3A4.
The like results for `N#Cc1ccc(-n2nccn2)c(C(=O)N2CCOC[C@H]2Cc2cccc(-n3nccn3)c2)c1` [Example 31, 4-[1,2,3]Triazol-2-yl-3-[(R)-3-(3-[1,2,3]triazol-2-yl-benzyl)-morpholine-4-carbonyl]-benzonitrile] were, in that order, 33 nM, 360 nM and above 50 µM.
Regarding `Cc1ccc(C(=O)N2C[C@@H](C)OC[C@H]2Cc2cccc(-n3nccn3)c2)c(-n2nccn2)c1C` [Example 99, (3,4-Dimethyl-2-[1,2,3]triazol-2-yl-phenyl)-[(2R,5R)-2-methyl-5-(3-[1,2,3]triazol-2-yl-benzyl)-morpholin-4-yl]-methanone], the figures for the IC50 at human orexin-1 receptor (setting [1]), on human orexin-2 receptor (setting [2]) and at CYP3A4 were 5 nM, 1220 nM and 9.6 µM, respectively.

The term IC50 denotes the concentration that gives 50% inhibition.
